Measurements published in ChEMBL document CHEMBL5136985, “Natural and synthetic β-carboline as a privileged antifungal scaﬀolds” (Eur J Med Chem, 2022).
pEC50: −log10 of the molar value. Converted amounts (≈) assume the structure as drawn.

What was measured:
[1] = test system: Alternaria solani; assay: Antifungal activity against Alternaria solani relative to control; format: functional; design: concentration or dose not given beside the values
[2] = test system: Bipolaris maydis; assay: Antifungal activity against Bipolaris maydis relative to control; format: functional; design: concentration or dose not given beside the values
[3] = test system: Candida albicans; assay: Antifungal activity against Candida albicans; format: functional, organism-based; settings: for MIC: Candida albicans
[4] = test system: Pichia kudriavzevii; assay: Antifungal activity against Candida krusei; format: functional
[5] = test system: Candida tropicalis; assay: Antifungal activity against Candida tropicalis; format: functional
[6] = test system: Candida parapsilosis; assay: Antifungal activity against Candida parapsilosis; format: functional; settings: Lodderomyces parapsilosis
[7] = test system: Kluyveromyces marxianus; assay: Antifungal activity against Candida kefyr; format: functional
[8] = test system: Nakaseomyces glabratus; assay: Antifungal activity against Candida glabrata; format: functional
[9] = test system: Cryptococcus neoformans; assay: Antifungal activity against Cryptococcus neoformans; format: functional
[10] = test system: Rhizoctonia solani; assay: Antifungal activity against Rhizoctonia solani; format: functional, organism-based
[11] = test system: Candida albicans; assay: Antifungal activity against Candida albicans incubated for 24 hrs by well diffusion method; format: functional
[12] = test system: Trichophyton interdigitale; assay: Antifungal activity against Trichophyton interdigitale; format: functional
[13] = test system: Sclerotinia; assay: Antifungal activity against rape Sclerotinia rot at 50 ug/ml relative to control; format: functional; settings: for Activity: dose 50 µg/ml
[14] = test system: Sclerotinia; assay: Antifungal activity against sunflower Sclerotinia rot at 50 ug/ml relative to control; format: functional; settings: dose 50 µg/ml
[15] = test system: Curvularia lunata; assay: Antifungal activity against Curvularia lunata; format: functional, organism-based
[16] = test system: Colletotrichum gloeosporioides; assay: Antifungal activity against Colletotrichum gloeosporioides; format: functional
[17] = test system: Cytospora mali; assay: Antifungal activity against Valsa mali; format: functional
[18] = test system: Alternaria alternata; assay: Antifungal activity against Alternaria alternata; format: functional
[19] = test system: Alternaria brassicae; assay: Antifungal activity against Alternaria brassicae; format: functional
[20] = test system: Sclerotinia sclerotiorum; assay: Antifungal activity against Sclerotinia sclerotiorum; format: functional, organism-based
[21] = test system: Fusarium solani; assay: Antifungal activity against Fusarium solani; format: functional, organism-based
[22] = test system: Phytophthora litchii; assay: Antifungal activity against Phytophthora litchii assessed as inhibition of growth rate at 100 mg/L relative to control; format: functional
[23] = test system: Gaeumannomyces graminis; assay: Antifungal activity against Gaeumannomyces graminis; format: functional, organism-based
[24] = test system: Aspergillus niger; assay: Antifungal activity against Aspergillus niger assessed as inhibition of growth rate at 100 ug/ml by disc diffusion method relative to control; format: functional
[25] = test system: Bipolaris oryzae; assay: Antifungal activity against Helminthosporium oryzae assessed as inhibition of growth rate at 100 ug/ml by disc diffusion method relative to control; format: functional

`Cc1nccc2c1[nH]c1cc(O)ccc12` was tested. Which Activity [1] did it give?
The Activity was 26.3%.

And the Activity [2]?
Its Activity is 31.8%.

For `Cc1nccc2c1[nH]c1ccc(Br)cc12`, which Activity [1] is on record?
The Activity was 73.7%.

What about the Activity [2] of the same compound?
The Activity was 86.4%.

`C[n+]1ccc2c3ccccc3n(-n3c4ccccc4c4cc[n+](C)cc43)c2c1.[I-].[I-]` was tested. Which EC50 [3] did it give?
Its EC50 is 0.5 uM/ml.

With `c1ccc2c(c1)c1ccncc1n2-n1c2ccccc2c2ccncc21` as the compound, how does the EC50 [3] read?
The EC50 was greater than 1 uM/ml.

How did the MIC [3] turn out when `CCCCCCCC[C@@H]1N[C@H](C(=O)OC)Cc2c1[nH]c1ccccc21` was run?
The MIC was greater than 94.7 µg/mL.

What about the MIC [4] of the same compound?
The MIC was greater than 94.7 µg/mL.

And the MIC [5]?
Its MIC is greater than 94.7 µg/mL.

What about the MIC [6] of the same compound?
The MIC was greater than 94.7 µg/mL.

And the MIC [7]?
Its MIC is 23.7 µg/mL (≈ 69.1 µM).

And the MIC [8]?
Its MIC is 23.7 µg/mL (≈ 69.1 µM).

What about the MIC [9] of the same compound?
The MIC was 14.8 µg/mL (≈ 43.2 µM).

With `CCCCCCCC[C@H]1N[C@H](C(=O)OC)Cc2c1[nH]c1ccccc21` as the compound, how does the MIC [3] read?
Its MIC is 14.8 µg/mL (≈ 43.2 µM).

What about the MIC [4] of the same compound?
Its MIC is 7.41 µg/mL (≈ 21.6 µM).

What about the MIC [5] of the same compound?
The MIC was 7.41 µg/mL (≈ 21.6 µM).

And the MIC [6]?
The MIC was 14.8 µg/mL (≈ 43.2 µM).

And the MIC [7]?
The MIC was 3.67 µg/mL (≈ 10.7 µM).

What about the MIC [8] of the same compound?
The MIC was 3.67 µg/mL (≈ 10.7 µM).

And the MIC [9]?
Its MIC is 7.41 µg/mL (≈ 21.6 µM).

For `COc1ccc(-c2nc(NC(=O)NC(=O)c3c(F)cccc3F)cc3c2[nH]c2ccccc23)cc1`, which EC50 [10] is on record?
The EC50 was 277 µg/mL (≈ 586 µM).

`C=CCCCCCCCCCOC(=O)c1cc2c([nH]c3ccccc32)c(-c2ccc(OC)cc2)n1` was tested. Which MIC [11] did it give?
The MIC was 8.6 µg/mL (≈ 18.3 µM).

And the MIC [3]?
Its MIC is 8.6 µg/mL (≈ 18.3 µM).

`CCCCCCCc1nccc2c1[nH]c1ccccc12` was tested. Which MIC [12] did it give?
Its MIC is 12.5 µg/mL (≈ 46.9 µM).

For `Fc1ccc(Cn2c3ccccc3c3ccnc(-c4nc5ccccc5[nH]4)c32)cc1`, which Activity [13] is on record?
The Activity was 79.89%.

For `Cc1nccc2c3ccccc3n(Cc3cn(-c4ccc(C(F)(F)F)cc4)nn3)c12`, which Activity [14] is on record?
Its Activity is 86.93%.

With `C#CCn1c2ccccc2c2cc(C)ncc21` as the compound, how does the EC50 [15] read?
The EC50 was 6.73 µg/mL (≈ 30.6 µM).

With `CCCCCCc1nccc2c1[nH]c1ccccc12` as the compound, how does the MIC [12] read?
Its MIC is 25 µg/mL (≈ 99.1 µM).

What does the source list for `Cc1nccc2c1[nH]c1cc(OC(=O)NC(C)C)ccc12`?
Activity [1]: 21.1%; Activity [2]: 22.7%

With `CCC(C)Cc1nccc2c1[nH]c1ccccc12` (stereo not drawn) as the compound, how does the MIC [12] read?
The MIC was 50 µg/mL (≈ 210 µM).

What does the source list for `O=C1[C@@H]2Cc3c([nH]c4ccccc34)C(c3ccc(O)cc3)N2C(=O)[C@@H]2CCCN12` (stereo partly drawn)?
MIC [16]: 12.5 µg/mL (≈ 32.3 µM); MIC [17]: 12.5 µg/mL (≈ 32.3 µM); MIC [18]: 12.5 µg/mL (≈ 32.3 µM); MIC [19]: 6.25 µg/mL (≈ 16.1 µM)

`c1ccc(C[C@@H]2COC(c3nccc4c3[nH]c3ccccc34)=N2)cc1` was tested. Which pEC50 [20] did it give?
The pEC50 was 4.92.

With `Cc1ccc2c(c1)c1c(n2C)C=[N+](c2ccc(F)cc2)CC1` as the compound, how does the pEC50 [21] read?
Its pEC50 is 5.26.

With `Cc1cccc([N+]2=Cc3c(c4cc(C)ccc4n3C)CC2)c1` as the compound, how does the pEC50 [21] read?
Its pEC50 is 5.57.

`CCCCn1c2ccccc2c2ccnc(-c3nc4ccccc4[nH]3)c21` was tested. Which Activity [13] did it give?
Its Activity is 80.46%.

`c1ccc([C@@H]2COC(c3nccc4c3[nH]c3ccccc34)=N2)cc1` was tested. Which pEC50 [20] did it give?
The pEC50 was 4.76.

With `c1ccc(Cn2c3ccccc3c3ccnc(-c4nc5ccccc5[nH]4)c32)cc1` as the compound, how does the inhibition at 50 µg/mL ([13]; Sclerotinia) read?
Its inhibition at 50 µg/mL is 88.5%.

`O=C(Nc1ccccn1)c1cc2c([nH]c3ccccc32)c(-c2ccccc2)n1` was tested. Which inhibition at 100 µg/mL [22] did it give?
The inhibition at 100 µg/mL was 95.9%.

With `CC(C)c1nc(C(N)=O)cc2c1[nH]c1ccccc12` as the compound, how does the pEC50 [23] read?
The pEC50 was 5.55.

With `Cc1cccc([N+]2=Cc3c(c4ccccc4n3C)CC2)c1` as the compound, how does the pEC50 [21] read?
Its pEC50 is 5.52.

With `O=C(O)c1cc2c([nH]c3ccccc32)c(-c2ccsc2)n1` as the compound, how does the pEC50 [20] read?
The pEC50 was 4.92.

Which inhibition at 100 µg/mL [24] does the source give for `COc1cc(C2NCCc3c2[nH]c2ccccc32)ccc1O` (stereo not drawn) here?
Its inhibition at 100 µg/mL is 21.6%.

What about the inhibition at 100 µg/mL [25] of the same compound?
Its inhibition at 100 µg/mL is 22.4%.

`c1ccc(-c2nc(-c3nnc(C4CC4)o3)cc3c2[nH]c2ccccc23)cc1` was tested. Which EC50 [10] did it give?
Its EC50 is 4.2 µg/mL (≈ 11.9 µM).

`COc1cc(-c2nc(NC(=O)Nc3ccc(C(F)(F)F)cc3)cc3c2[nH]c2ccccc23)cc(OC)c1OC` was tested. Which EC50 [10] did it give?
The EC50 was 281 µg/mL (≈ 524 µM).

Which Activity [14] does the source give for `Cc1nccc2c3ccccc3n(Cc3cn(-c4ccncc4)nn3)c12` here?
Its Activity is 84.47%.

`CC(C)Cc1nccc2c1[nH]c1ccccc12` was tested. Which MIC [12] did it give?
The MIC was 100 µg/mL (≈ 446 µM).

`Cc1nccc2c1[nH]c1ccc([N+](=O)[O-])cc12` was tested. Which Activity [1] did it give?
Its Activity is 33.3%.

What about the Activity [2] of the same compound?
Its Activity is 31.6%.

How did the EC50 [15] turn out when `Cc1cc2c3ccccc3n(C(C)C)c2cn1` was run?
The EC50 was 4.23 µg/mL (≈ 18.9 µM).

With `Cn1c2c(c3ccccc31)CC[N+](c1ccc(F)cc1)=C2` as the compound, how does the pEC50 [21] read?
Its pEC50 is 5.66.

What does the source list for `C=CCCCCCCCCCOC(=O)c1cc2c([nH]c3ccccc32)c(-c2ccc(O)cc2)n1`?
MIC [11]: 2.8 µg/mL (≈ 6.13 µM); MIC [3]: 2.8 µg/mL (≈ 6.13 µM)

How did the pEC50 [21] turn out when `Cc1ccc2c(c1)c1c(n2C)C=[N+](c2ccc(Cl)cc2)CC1` was run?
The pEC50 was 5.57.

How did the EC50 [10] turn out when `COc1cc(-c2nc(NC(=O)NC(=O)c3c(F)cccc3F)cc3c2[nH]c2ccccc23)cc(OC)c1OC` was run?
The EC50 was 131 µg/mL (≈ 246 µM).

For `CCCCCc1nccc2c1[nH]c1ccccc12`, which MIC [12] is on record?
Its MIC is 50 µg/mL (≈ 210 µM).

`COc1cc(C(=O)NC(=S)Nc2cc3c([nH]c4ccccc43)c(-c3cc(OC)c(OC)c(OC)c3)n2)cc(OC)c1OC` was tested. Which EC50 [10] did it give?
Its EC50 is 293 µg/mL (≈ 486 µM).

`Oc1ccccc1C1NCCc2c1[nH]c1ccccc21` (stereo not drawn) was tested. Which inhibition at 100 µg/mL [24] did it give?
Its inhibition at 100 µg/mL is 21.2%.

What about the inhibition at 100 µg/mL [25] of the same compound?
The inhibition at 100 µg/mL was 19.8%.
